In patent US20190142800A1, “SYNERGISTIC ANTIFUNGAL COMPOSITIONS AND METHODS THEREOF” (VYOME THERAPEUTICS LIMITED, priority 2016, published 2019):

How the values were obtained:
[1] = system: terbinafine resistant Trichophyton interdigitale (GTB-2S); test: Checkerboard assay on terbinafine resistant Trichophyton interdigitale (GTB-2S); assay type: cell-based
Method: (§1) The synergy is measured by determining the fractional inhibitory concentration (FIC) value of the combination. This experimental set up, called checkerboard method, allows measurement of a desired effect (inhibition of fungal growth in this case) at different combinations of various concentrations of the two agents (antifungal agent and fatty acid/ester). […] No agent is added to the penultimate column on the right and the bottom row. The final column on the right is used for growth control (only inoculum in broth) and sterility control (broth alone, no inoculum). […] FIC values for both agents in a particular well were calculated in this way followed by determination of the FIC index (sum of the FICs of each drug in the concerned well). […] Agents Chemother.
(§2) Using the checkerboard layout experimental setup described above (FIG. 1A), various medium-chain fatty acids were tested for their ability to potentiate the activity of a known antifungal agent. Concentrations above and below the MIC of each test agent were tested using serial dilution. The same procedure was expanded to test combinations of various medium-chain fatty acids C-1 to C-14 (such caprylic acid, undecylenic acid and lauric acid) and esters thereof, with antifungal agents from various classes including azoles, allylamines, benzylamines, zinc pyrithione and piroctone olamine against both susceptible and resistant Trichophyton spp. (filamentous fungus) and Candida spp. (yeast).
(§3) Potentiation of the activity of antimycotic agents using ester derivatives of medium chain fatty acids was tested in a standard, well accepted in vitro assay system to check for synergy. This experimental set up, called checkerboard method, allows measurement of a desired effect (inhibition of fungal growth in this case) at different combinations of various concentrations of two agents. A chosen medium chain fatty acid (C-1 to C-14) or its ester derivative was tested for its ability to potentiate the activity of a known antifungal agent (various classes) using the checkerboard layout. Various concentrations above and below the MIC of each test agent were tested using serial dilution in Sabouraud dextrose broth. […] FIC values for both test agents in a particular well are calculated in this way followed by determination of the FIC index (sum of the FICs of each drug in the concerned well).

[2] = system: Trichophyton rubrum (ATCC-28188); test: Checkerboard assay of fatty acid/ester with antifungals on Trichophyton rubrum (ATCC 28188); assay type: cell-based; design: key to FIC index: FIC index = sum of FICs; FIC = agent conc in well / agent MIC; settings: for MIC: Trichophyton rubrum, ATCC28188, agent alone
Method: The synergy is measured by determining the fractional inhibitory concentration (FIC) value of the combination. This experimental set up, called checkerboard method, allows measurement of a desired effect (inhibition of fungal growth in this case) at different combinations of various concentrations of the two agents (antifungal agent and fatty acid/ester). […] No agent is added to the penultimate column on the right and the bottom row. The final column on the right is used for growth control (only inoculum in broth) and sterility control (broth alone, no inoculum). […] FIC value for each agent in a particular well of the checkerboard layout was calculated by dividing the agent concentration in that well by the established MIC value of the agent against the test organism (Hsieh et al., Synergy assessed by checkerboard: A critical Analysis, Diagn. Microbiol. Infect Dis. (1993) 16:343-349). FIC values for both agents in a particular well were calculated in this way followed by determination of the FIC index (sum of the FICs of each drug in the concerned well). […] Agents Chemother. (2010) 54(2): 602-609].
as §2
Potentiation of the activity of antimycotic agents using ester derivatives of medium chain fatty acids was tested in a standard, well accepted in vitro assay system to check for synergy. This experimental set up, called checkerboard method, allows measurement of a desired effect (inhibition of fungal growth in this case) at different combinations of various concentrations of two agents. A chosen medium chain fatty acid (C-1 to C-14) or its ester derivative was tested for its ability to potentiate the activity of a known antifungal agent (various classes) using the checkerboard layout. Various concentrations above and below the MIC of each test agent were tested using serial dilution in Sabouraud dextrose broth. […] FIC value for a drug in a particular well of the checkerboard layout is calculated by dividing the drug concentration in that well by the established MIC value of the drug against the test organism (Hsieh et al., Synergy assessed by checkerboard: A critical Analysis, Diagn. Microbiol. Infect Dis. (1993) 16:343-349). FIC values for both test agents in a particular well are calculated in this way followed by determination of the FIC index (sum of the FICs of each drug in the concerned well).

[3] = system: azole resistant C. albicans MTCC 227; test: Checkerboard assay on azole resistant C. albicans MTCC 227; assay type: cell-based, Candida albicans; settings: for MIC: Candida albicans, MTCC227, agent alone
Method: as §1, §2, §3

[4] = in combination with caprylic acid
[5] = in combination with glyceryl monocaprylate
[6] = in combination with propylene glycol monocaprylate
[7] = agent's MIC in combination antifungal + caprylic acid (partner: other agent of same combination no.)
[8] = agent's MIC in combination antifungal + glyceryl monocaprylate (partner: other agent of same combination no.)
[9] = agent's MIC in combination antifungal + lauric acid (partner: other agent of same combination no.)
[10] = agent's MIC in combination antifungal + propylene glycol monocaprylate (partner: other agent of same combination no.)
[11] = agent's MIC in combination antifungal + propylene glycol monolaurate (partner: other agent of same combination no.)
[12] = agent's MIC in combination antifungal + undecylenic acid (partner: other agent of same combination no.)
[13] = antifungal in combination with caprylic acid
[14] = antifungal in combination with glyceryl monocaprylate
[15] = antifungal in combination with lauric acid
[16] = antifungal in combination with propylene glycol monocaprylate
[17] = antifungal in combination with propylene glycol monolaurate
[18] = antifungal in combination with undecylenic acid
[19] = combination antifungal + caprylic acid
[20] = combination antifungal + glyceryl monocaprylate
[21] = combination antifungal + lauric acid
[22] = combination antifungal + propylene glycol monocaprylate
[23] = combination antifungal + propylene glycol monolaurate
[24] = combination antifungal + undecylenic acid

Compound: CN(Cc1ccc(C(C)(C)C)cc1)Cc1cccc2ccccc12 [Butenafine]
- MIC ([1]; Trichophyton interdigitale, agent alone, Table 7): 7.5 mg/L
- Combination MIC ([1]; agent's MIC in combination terbinafine or butenafine + caprylic acid): 0.468 mg/L
- Combination MIC ([1]; agent's MIC in combination terbinafine or butenafine + glyceryl monocaprylate): 0.234 mg/L
- Combination MIC ([1]; agent's MIC in combination terbinafine or butenafine + propylene glycol monocaprylate): 0.117 mg/L
- FIC ([1]; combination terbinafine or butenafine + caprylic acid): 0.0625
- FIC ([1]; combination terbinafine or butenafine + glyceryl monocaprylate): 0.0312
- FIC ([1]; combination terbinafine or butenafine + propylene glycol monocaprylate): 0.016
- FIC index [1, 4]: 0.562
- Interaction [1, 4]: Synergistic (Combinations that gave FIC indices less than 1 were designated “synergistic”)
- FIC index [1, 5]: 0.531
- Interaction [1, 5]: Synergistic (Combinations that gave FIC indices less than 1 were designated “synergistic”)
- FIC index [1, 6]: 0.516
- Interaction [1, 6]: Synergistic (Combinations that gave FIC indices less than 1 were designated “synergistic”)

Compound: CCC(C)n1ncn(-c2ccc(N3CCN(c4ccc(OCC5COC(Cn6cncn6)(c6ccc(Cl)cc6Cl)O5)cc4)CC3)cc2)c1=O (stereo not shown) [Itraconazole]
- MIC ([2]; Table 1, caprylic acid series): 0.125 mg/L
- MIC ([2]; Table 2, propylene glycol monocaprylate series): 0.125 mg/L
- MIC ([2]; Table 3, glyceryl monocaprylate series): 0.125 mg/L
- MIC ([2]; Table 4, undecylenic acid (C11) series): 0.125 mg/L
- MIC ([2]; Table 5, lauric acid (C12) series): 0.125 mg/L
- MIC ([2]; Table 6, propylene glycol monolaurate series): 0.125 mg/L
- Combination MIC [2, 7]: 0.0312 mg/L
- Combination MIC [2, 8]: 0.007 mg/L
- Combination MIC [2, 9]: 0.06 mg/L
- Combination MIC [2, 10]: 0.015 mg/L
- Combination MIC [2, 11]: 0.06 mg/L
- Combination MIC [2, 12]: 0.0312 mg/L
- FIC index [2, 13]: 0.5
- Interaction [2, 13]: Synergistic (Combinations that gave FIC indices less than 1 were designated “synergistic”)
- FIC index [2, 14]: 0.562
- Interaction [2, 14]: Synergistic (Combinations that gave FIC indices less than 1 were designated “synergistic”)
- FIC index [2, 15]: 0.75
- Interaction [2, 15]: Synergistic (Combinations that gave FIC indices less than 1 were designated “synergistic”)
- FIC index [2, 16]: 0.625
- Interaction [2, 16]: Synergistic (Combinations that gave FIC indices less than 1 were designated “synergistic”)
- FIC index [2, 17]: 0.6
- Interaction [2, 17]: Synergistic (Combinations that gave FIC indices less than 1 were designated “synergistic”)
- FIC index [2, 18]: 0.75
- Interaction [2, 18]: Synergistic (Combinations that gave FIC indices less than 1 were designated “synergistic”)
- FIC [2, 19]: 0.25
- FIC [2, 20]: 0.0625
- FIC [2, 21]: 0.5
- FIC [2, 22]: 0.125
- FIC [2, 23]: 0.48
- FIC [2, 24]: 0.25
- MIC ([3]; Table 9, caprylic acid (C8) series): 32 mg/L
- MIC ([3]; Table 10, propylene glycol monocaprylate series): 64 mg/L
- MIC ([3]; Table 11, glyceryl monocaprylate series): 32 mg/L
- MIC ([3]; Table 12, undecylenic acid (C11) series): 32 mg/L
- MIC ([3]; Table 13, lauric acid (C12) series): 32 mg/L
- MIC ([3]; Table 14, propylene glycol monolaurate series): 32 mg/L
- Combination MIC [3, 7]: 4 mg/L
- Combination MIC [3, 8]: 4 mg/L
- Combination MIC [3, 9]: 0.125 mg/L
- Combination MIC [3, 10]: 0.125 mg/L
- Combination MIC [3, 11]: 2 mg/L
- Combination MIC [3, 12]: 0.125 mg/L
- FIC index [3, 13]: 0.25
- Interaction [3, 13]: Synergistic (Combinations that gave FIC indices less than 1 were designated “synergistic”)
- FIC index [3, 14]: 0.375
- Interaction [3, 14]: Synergistic (Combinations that gave FIC indices less than 1 were designated “synergistic”)
- FIC index [3, 15]: 0.253
- Interaction [3, 15]: Synergistic (Combinations that gave FIC indices less than 1 were designated “synergistic”)
- FIC index [3, 16]: 0.064
- Interaction [3, 16]: Synergistic (Combinations that gave FIC indices less than 1 were designated “synergistic”)
- FIC index [3, 17]: 0.07
- Interaction [3, 17]: Synergistic (Combinations that gave FIC indices less than 1 were designated “synergistic”)
- FIC index [3, 18]: 0.066
- Interaction [3, 18]: Synergistic (Combinations that gave FIC indices less than 1 were designated “synergistic”)
- FIC [3, 19]: 0.125
- FIC [3, 20]: 0.125
- FIC [3, 21]: 0.003
- FIC [3, 22]: 0.002
- FIC [3, 23]: 0.0625
- FIC [3, 24]: 0.003
